{"source": "patent US20260166159A1", "about": "“KRAS G12D DEGRADATION AGENT, AND PREPARATION METHOD AND USE THEREFOR” (LEADINGTAC PHARMACEUTICAL (SHAOXING) CO., LTD., priority 2022, published 2026)", "key": {"[1]": {"tested_on": "KRAS G12D mutant human gastric cancer cell AGS", "assay": "3D cell proliferation inhibition assay, AGS", "type": "cell-based", "details": "168 h, 7 days, CTG, numeric values", "from_the_text": "The inhibitory effects of the compounds on 3D cell proliferation were investigated on KRAS G12D mutant human lung cancer cell A427, KRAS G12D mutant human gastric cancer cell AGS, KRAS G12D mutant human metastatic pancreatic cancer cell AsPc-1, KRAS G12D mutant human pancreatic cancer cell Panc 04.03, KRAS G12D mutant human pancreatic cancer cell HPAC, KRAS G12V mutant human lung squamous cell carcinoma cell SW900, and KRAS WT human gastric cancer cell MKN1. The specific procedures were as follows:\n10 μL of each compound solution diluted in a gradient was added to corresponding wells of a 96-well low-adsorption microplate (PerkinElmer), so that the final concentrations of the test compounds in the reaction system were in a range of 10000-0.026 nM. The final concentration of DMSO was 0.2%. Then 90 µL of cells were correspondingly seeded into each well to achieve a cell density of 5×10^2 cells/well (the cell density of SW900 was 5×10^1 cells/well, and the cell density of MKN1 was 1×10^3 cells/well). In addition to test wells for the test compounds, both a DMSO control well and a medium control well were set, with the DMSO control well containing DMSO and cells and the medium well containing only a medium. After the sample loading, the 96-well low-adsorption microplate was incubated in an incubator at 37° C. with 5% carbon dioxide for 7 days. After 7 days, the microplate was taken out, and 100 μL of CTG reagent (Promega) was added to each well. The plate was incubated at room temperature for 60 min and read on a microplate reader EnVision by the chemiluminescence program. The inhibition rates of the compounds at each concentration were calculated using the formula for the percentage inhibition of cell proliferation: inhibition rate %=(mean value of DMSO control group−single concentration reading value of compound)/(mean value of DMSO control group−mean value of medium control group)×100. Then non-linear curve fittings for logarithmic concentration-inhibition rate were performed by GraphPad Prism 8, and the IC50 values of the compounds were obtained (Table 5)."}, "[2]": {"biological_target": "T1, KRAS-G12D (Homo sapiens, UniProt P01116, G12D)", "T1 construct": "endogenous in cells; host or cells: A-427 (ATCC), AGS, AsPc-1, Panc 04.03", "T1 sequence (P01116 1-188 isoform P01116-2 G12D)": "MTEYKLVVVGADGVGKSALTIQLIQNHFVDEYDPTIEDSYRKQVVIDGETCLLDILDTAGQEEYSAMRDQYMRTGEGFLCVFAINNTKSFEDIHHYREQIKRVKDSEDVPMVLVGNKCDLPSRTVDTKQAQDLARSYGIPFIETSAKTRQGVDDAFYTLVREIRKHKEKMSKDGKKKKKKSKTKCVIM", "assay": "KRAS-G12D degradation assay (Western Blot), A-427 cells", "type": "cell-based", "details": "A427 cells, 24 h; for Dmax: A-427", "protocol": "The degradation effects of the compounds on KRAS-G12D were investigated on KRAS G12D mutant human lung cancer cell A-427 (ATCC), KRAS G12D mutant human gastric cancer cell AGS, KRAS G12D mutant human metastatic pancreatic cancer cell AsPc-1, and KRAS G12D mutant human pancreatic adenocarcinoma cell Panc 04.03. The specific procedures were as follows: 0.95 mL of cells were seeded into each well of a 24-well cell culture plate to achieve a cell density of 5×10^5 cells/well; and the cell plate was incubated in an incubator at 37° C. with 5% CO2 overnight. Then 50 μL of the compound solution after dilution was added to each of the wells with the corresponding cells, so that the final concentration of the compound was in a range of 0.03-3000 nM. The final concentration of DMSO was 0.25%. After the compounds were added, the cell plate was incubated in the incubator at 37° C. with 5% CO2 for 24 h. The culture medium in the 24-well cell culture plate was removed, and the plate was washed twice with 1×PBS (KeyGEN). 120 μL of RIPA (strong) lysis buffer (Beyotime) supplemented with 1 mM phenylmethylsulfonyl fluoride, a protease inhibitor mixture (Beyotime), and a protease phosphatase inhibitor mixture (Beyotime) was added to lyse adherent A-427 cells at the bottom of the cell culture plate. After the plate was left to stand on ice for 30 min, the protein lysate in each well was transferred to a 1.5 mL centrifuge tube and centrifuged at 15000 g for 20 min at 4° C. The cell lysate supernatants after centrifugation were cryopreserved in a refrigerator at −80° C. for later use.\nAfter the samples of the cell lysate supernatants that had been prepared were thawed from the refrigerator at −80° C., the total protein concentrations of the cell lysates were determined using a BCA protein quantification kit (Tiangen). The total protein concentrations of the samples were then adjusted to 0.5 μg/μL with PBS and 5×SDS-PAGE protein loading buffer (Beyotime), and the samples were incubated in a water bath at 100° C. for 15 min. The samples were then incubated in an ice bath for 5 min and centrifuged at 14000 g for 1 min at 4° C., and the supernatants were mixed well as loading samples for the Western Blot assay. The samples were loaded into wells of a 10% precast gel (KeyGEN) with a loading volume of 10 μL (total protein: 5 μg), a sufficient Tris-MOPS-SDS running buffer (Adamas) was added, and then electrophoresis was performed at a constant voltage of 120 V for 55 min. After the electrophoresis, the proteins on the gel were transferred to PVDF membranes at a constant current of 250 mA for 55 min. After the membrane transfer, the PVDF membranes were incubated in 1× Quick Block blocking buffer (Beyotime) at room temperature for 30 min. After the blocking, the PVDF membranes were separately incubated at 4° C. overnight with the KRAS antibody (Abcam) diluted in a ratio of 1:1000 and the […] antibody (Abcam) diluted in a ratio of 1:2000 in 5% BSA as the diluent, and then washed with 1×TBST buffer (2.4 g of Tris, 8.8 g of NaCl, 1.5 mL of Tween 20, with pH adjusted to 7.4, with the volume brought to 1 L) 3 times for 10 min/time. The membranes were incubated with a secondary antibody (Abcam) diluted in 5% BSA at room temperature for 2 h, and then washed with 1×TBST buffer 3 times for 10 min/time. Finally, the membranes were incubated with Clarity Western ECL Substrate (BIO-RAD) for 5 min for luminescence and color development, and a ChemiScope 6200 Touch chemiluminescence imaging system (Clinx) was used for color development and protein mapping. Gray value analysis of the protein maps was performed using the chemiluminescence analysis software (Clinx). The gray correction value for each sample was calculated using the formula: gray correction value=(gray value of target protein/gray value of corresponding internal reference)×10^3. Then degradation rates were calculated by comparison with the gray correction value of the control group. […]"}}, "note": "pIC50: −log10 of the molar value.", "data": [{"smiles": "C#Cc1c(F)ccc2cc(O)cc(-c3ncc4c(N5C[C@@H]6C[C@H]5CN6)nc(OCC5(CN6CCN(CC7CCC8(CC7)CCN(C(=O)c7ccc(C)c(N9CCC(=O)NC9=O)c7)CC8)CC6)CC5)nc4c3F)c12", "note": "[Example 86, 1-(5-(9-((4-((1-(((4-((1S,4S)-2,5-diazabicyclo[2.2.1]heptan-2-yl)-7-(8-ethynyl-7-fluoro-3-hydroxynaphthalen-1-yl)-8-fluoropyrido[4,3-d]pyrimidin-2-yl)oxy)methyl)cyclopropyl)methyl)piperazin-1-yl)methyl)-3-azaspiro[5.5]undecane-3-carbonyl)-2-methylphenyl)dihydropyrimidine-2,4(1H,3H)-dione]", "values": [{"measurement": "pIC50", "setting": "[1]", "result": 7.01}]}, {"smiles": "C#Cc1c(F)ccc2cc(O)cc(-c3ncc4c(N5CC6CCC(C5)N6)nc(OCC5(CN6CCN(CCC7CC8(CCN(C(=O)c9ccc(OC)c(N%10CCC(=O)NC%10=O)c9)CC8)C7)CC6)CC5)nc4c3F)c12", "note": "[Example 43, 1-(5-(2-(2-(4-((1-(((4-(3,8-diazabicyclo[3.2.1]octan-3-yl)-7-(8-ethynyl-7-fluoro-3-hydroxynaphthalen-1-yl)-8-fluoropyrido[4,3-d]pyrimidin-2-yl)oxy)methyl)cyclopropyl)methyl)piperazin-1-yl)ethyl)-7-azaspiro[3.5]nonane-7-carbonyl)-2-methoxyphenyl)dihydropyrimidine-2,4(1H,3H)-dione]", "values": [{"measurement": "DC50", "setting": "[2]; class symbols", "result": "≤ 50", "unit": "nM"}, {"measurement": "Dmax", "setting": "[2]; class symbols", "result": "50 to 80", "unit": "%"}]}, {"smiles": "C#Cc1c(F)ccc2cc(O)cc(-c3ncc4c(N5CC6CCC(C5)N6)nc(OCC5CCN(CCCC6CCC7(CC6)CCN(C(=O)c6ccc(Cl)c(N8CCC(=O)NC8=O)c6)CC7)CC5)nc4c3F)c12", "note": "[Example 68, 1-(5-(9-(3-(4-(((4-(3,8-diazabicyclo[3.2.1]octan-3-yl)-7-(8-ethynyl-7-fluoro-3-hydroxynaphthalen-1-yl)-8-fluoropyrido[4,3-d]pyrimidin-2-yl)oxy)methyl)piperidin-1-yl)propyl)-3-azaspiro[5.5]undecane-3-carbonyl)-2-chlorophenyl)dihydropyrimidine-2,4(1H,3H)-dione]", "values": [{"measurement": "pIC50", "setting": "[1]", "result": 7.61}]}, {"smiles": "C#Cc1c(F)ccc2cc(O)cc(-c3ncc4c(N5CC6CCC(C5)N6)nc(OCC5(CN6CC7CC(C6)N7CC6CCC7(CC6)CCN(C(=O)c6ccc(Cl)c(N8CCC(=O)NC8=O)c6)CC7)CC5)nc4c3F)c12", "note": "[Example 87, 1-(5-(9-((3-((1-(((4-(3,8-diazabicyclo[3.2.1]octan-3-yl)-7-(8-ethynyl-7-fluoro-3-hydroxynaphthalen-1-yl)-8-fluoropyrido[4,3-d]pyrimidin-2-yl)oxy)methyl)cyclopropyl)methyl)-3,6-diazabicyclo[3.1.1]heptan-6-yl)methyl)-3-azaspiro[5.5]undecane-3-carbonyl)-2-chlorophenyl)dihydropyrimidine-2,4(1H,3H)-dione]", "values": [{"measurement": "pIC50", "setting": "[1]", "result": 6.22}]}, {"smiles": "C#Cc1c(F)ccc2cc(O)cc(-c3ncc4c(N5CC6CCC(C5)N6)nc(OCC5(CN6CC(CCN7CCC8(CC7)CCN(C(=O)c7ccc(OC)c(N9CCC(=O)NC9=O)c7)CC8)C6)CC5)nc4c3F)c12", "note": "[Example 41, 1-(5-(9-(2-(1-((1-(((4-(3,8-diazabicyclo[3.2.1]octan-3-yl)-7-(8-ethynyl-7-fluoro-3-hydroxynaphthalen-1-yl)-8-fluoropyrido[4,3-d]pyrimidin-2-yl)oxy)methyl)cyclopropyl)methyl)azetidin-3-yl)ethyl)-3,9-diazaspiro[5.5]undecane-3-carbonyl)-2-methoxyphenyl)dihydropyrimidine-2,4(1H,3H)-dione]", "values": [{"measurement": "DC50", "setting": "[2]; class symbols", "result": "1000 to 10000", "unit": "nM"}]}, {"smiles": "CCc1cccc2cc(O)cc(-c3ccc4c(N5CC6CCC(C5)N6)nc(OCC5(CN6CCN(CC7CCC8(CC7)CCN(C(=O)c7ccc(OC)c(N9CCC(=O)NC9=O)c7)CC8)CC6)CC5)nc4c3F)c12", "note": "[Example 83, 1-(5-(9-((4-((1-(((4-(3,8-diazabicyclo[3.2.1]octan-3-yl)-7-(8-ethyl-3-hydroxynaphthalen-1-yl)-8-fluoroquinazolin-2-yl)oxy)methyl)cyclopropyl)methyl)piperazin-1-yl)methyl)-3-azaspiro[5.5]undecane-3-carbonyl)-2-methoxyphenyl)dihydropyrimidine-2,4(1H,3H)-dione]", "values": [{"measurement": "DC50", "setting": "[2]; numeric values", "result": 33.9, "unit": "nM"}, {"measurement": "Dmax", "setting": "[2]; numeric values", "result": 87.2, "unit": "%"}]}, {"smiles": "CCc1cccc2cc(O)cc(-c3ncc4c(N5CCC6CCC(C5)N6)nc(OCC5(CN6CCN(CC7CCC8(CC7)CCN(C(=O)c7ccc(OC)c(N9CCC(=O)NC9=O)c7)CC8)CC6)CC5)nc4c3F)c12", "note": "(stereo not drawn) [Example 88, 1-(5-(9-((4-((1-(((4-(3,9-diazabicyclo[4.2.1]nonan-3-yl)-7-(8-ethyl-3-hydroxynaphthalen-1-yl)-8-fluoropyrido[4,3-d]pyrimidin-2-yl)oxy)methyl)cyclopropyl)methyl)piperazin-1-yl)methyl)-3-azaspiro[5.5]undecane-3-carbonyl)-2-methoxyphenyl)dihydropyrimidine-2,4(1H,3H)-dione]", "values": [{"measurement": "DC50", "setting": "[2]; numeric values", "result": 0.65, "unit": "nM"}, {"measurement": "Dmax", "setting": "[2]; numeric values", "result": 89.5, "unit": "%"}]}, {"smiles": "C#Cc1c(F)ccc2cc(O)cc(-c3ncc4c(N5CC6CCC(C5)N6)nc(NCC5(CN6CCN(CC7CCC8(CC7)CCN(C(=O)c7ccc(Cl)c(N9CCC(=O)NC9=O)c7)CC8)CC6)CC5)nc4c3F)c12", "note": "[Example 46, 1-(5-(9-((4-((1-(((4-(3,8-diazabicyclo[3.2.1]octan-3-yl)-7-(8-ethynyl-7-fluoro-3-hydroxynaphthalen-1-yl)-8-fluoropyrido[4,3-d]pyrimidin-2-yl)amino)methyl)cyclopropyl)methyl)piperazin-1-yl)methyl)-3-azaspiro[5.5]undecane-3-carbonyl)-2-chlorophenyl)dihydropyrimidine-2,4(1H,3H)-dione]", "values": [{"measurement": "DC50", "setting": "[2]; class symbols", "result": "≤ 50", "unit": "nM"}, {"measurement": "Dmax", "setting": "[2]; class symbols", "result": "80 to 100", "unit": "%"}]}, {"smiles": "C#Cc1c(F)ccc2cc(O)cc(-c3ccc4c(N5CC6CCC(C5)N6)nc(OCC5(CN6CCN(CC7CCC8(CC7)CCN(C(=O)c7ccc(Cl)c(N9CCC(=O)NC9=O)c7)CC8)CC6)CC5)nc4c3F)c12", "note": "[Example 72, 1-(5-(9-((4-((1-(((4-(3,8-diazabicyclo[3.2.1]octan-3-yl)-7-(8-ethynyl-7-fluoro-3-hydroxynaphthalen-1-yl)-8-fluoroquinazolin-2-yl)oxy)methyl)cyclopropyl)methyl)piperazin-1-yl)methyl)-3-azaspiro[5.5]undecane-3-carbonyl)-2-chlorophenyl)dihydropyrimidine-2,4(1H,3H)-dione]", "values": [{"measurement": "pIC50", "setting": "[1]", "result": 8.06}, {"measurement": "DC50", "setting": "[2]; numeric values", "result": 101, "unit": "nM"}, {"measurement": "Dmax", "setting": "[2]; numeric values", "result": 82.6, "unit": "%"}]}]}
